From article PMC9704079, “Enhancement of the anticancer effect of atorvastatin-loaded nanoemulsions by improving oral absorption via multivalent intestinal transporter-targeting lipids” (Drug Delivery, 2022) come the findings set out here.

Series [1] deals with 4T1 cell tumor. Nature of the series: In vivo tumor growth inhibition in 4T1 cell tumor-bearing mice. Further details: species or system BALB/c mice. The protocol: To evaluate the in vivo antitumor efficacy of oral ATV-NEs, 1 × 10^6 4T1 cells dispersed in 100 μL of PBS (pH 7.4) were subcutaneously inoculated into the left flanks of BALB/c mice. […] To assess tumor growth suppression, the tumor size and body weight of the mice in all groups were measured every 3 days after treatment. The tumor volume in each mouse was calculated as (width)^2 × length × 0.52. After 21 days of treatment, mice were sacrificed and tumor masses were measured.

Series [2] relates to 4T1 cells. Nature of the series: In vitro 4T1 cell adhesion to ECM components. The settings on record: 100 µg/mL ATV, 1.5 h; fibronectin, collagen I, collagen IV, laminin I, fibrinogen. Format: cell-based, murine. The protocol: After incubation for 1.5 h at 37 °C, the cells were washed with PBS (pH 7.4) and stained by incubation for 10 min with the dye included in the kit. Then, each well was gently washed five times with 500 µL of sterilized water; 200 µL of extraction solution were added to each well, and the cells were incubated for 10 min in an orbital shaker. Finally, change in color was measured with a plate reader at 560 nm; inhibition of adhesion in the drug-treated cells was evaluated relative to inhibition in the untreated cells (control).

Series [3] deals with 4T1 (murine stage IV breast cancer) cells. Format: cell-based. The note with it: mouse, 24 h. The protocol: (§1) After incubation for 1 h, the absorbance at 450 nm was measured and the percentage of viable cells was calculated by comparison with the absorbance of untreated cells (100% viability).
The subject of series [4] is MCF-7 (human breast adenocarcinoma) cells. Format: cell-based. The note with it: 24 h. The protocol: as §1
For series [5], the system named is 4T1 cells. Kind of series: In vitro 4T1 cell invasion assay. Format: cell-based, murine. The note with it: 100 µg/mL ATV, 24 h. The protocol: (§2) The in vitro inhibition of 4T1 cell invasion and migration by ATV-NEs was assessed by Cultrex® 24-well basement membrane extract cell invasion assays (Trevigen, Inc., Gaithersburg, MD, USA). Briefly, the membrane insert in each well was uniformly coated with 100 µL of 0.5× basement membrane extract and incubated for 24 h at 37 °C. Separately, uncoated wells were used for cell migration assays. Next, each coated well was washed using 1× buffer. For invasion assays, the cells in Roswell Park Memorial Institute medium with 0.5% FBS were seeded into each apical chamber at a density of 1 × 10^6 cells/well. For cell migration assays, the same number of cells was seeded in the uncoated apical compartment. Subsequently, 500 µL of Roswell Park Memorial Institute medium containing 10% FBS were loaded into the basal compartment to serve as a chemoattractant; the cells were then cultured at 37 °C. After incubation for 24 h, both apical and basal compartments were washed with 1× buffer and the basal chamber was filled with 500 µL of cell dissociation solution (calcein-AM); the cells were incubated for 1 h at 37 °C. Finally, the dissolved calcein-AM concentration was measured with a fluorescence reader at an excitation wavelength of 485 nm and emission wavelength of 520 nm.

Series [6] has as its system 4T1 cells. Nature of the series: In vitro 4T1 cell migration assay. Format: cell-based, murine. The note with it: Mus musculus, 4T1, 24 h; read-out: Inhibition of 4T1 cell migration compared with untreated controls. As to the method:
as §2

For the compound `CC(C)c1c(C(=O)Nc2ccccc2)c(-c2ccccc2)c(-c2ccc(F)cc2)n1CC[C@@H](O)C[C@@H](O)CC(=O)O` [ATV in 10% DMF, Atorvastatin], the “Tumor growth compared to untreated controls (in words)” value in series [1] (daily oral, 40 mg/kg ATV in 10% DMF, 21 days) is reported as “did not inhibit tumor growth”.

With `CC(C)c1c(C(=O)Nc2ccccc2)c(-c2ccccc2)c(-c2ccc(F)cc2)n1CC[C@@H](O)C[C@@H](O)CC(=O)O` [ATV in 0.5% DMSO, Atorvastatin], in series [2], the “4T1 cell adhesion to ECM components (in words)” value is on record as “significantly decreased adhesion”. The “Concentration at which cytotoxic effects were exhibited” value in series [3] and in series [4] was over 100 µg/mL ATV in each case. Besides, the “Decrease in 4T1 cell invasion compared with untreated controls” value in series [5] turned out to be 31.9%. For the same compound, in series [6], the inhibition at 100 µg/mL amounted to 20.3%.

As for `CC(C)c1c(C(=O)Nc2ccccc2)c(-c2ccccc2)c(-c2ccc(F)cc2)n1CC[C@@H](O)C[C@@H](O)CC(=O)O` [ATV-IP, Atorvastatin], the “Tumor growth inhibition compared to controls” value in series [1] (once-daily IP, 5 mg/kg ATV in 10% DMF, 21 days) was 30.4%; in series [1] (once-daily IP, 10 mg/kg ATV in 10% DMF, 21 days), 52.5%. The “Isolated tumor mass reduction compared to controls” value in series [1] (once-daily IP, 10 mg/kg ATV in 10% DMF, day 21) was 73.8%.
